Laboratory results taken from patent EP1248603B1, “USE OF PARTICULAR COMPOUNDS FOR PROPHYLAXIS AND TREATMENT OF HEPATITIS C” (Morphochem AG, priority 2000, dated 2001).
Read-outs that look alike come from different tables or passages of the source.

Biological target: T1, NS3 Proteinase (Hepatitis C virus genotype 1b, UniProt P26663)
T1 construct: beschriebenen NS3 Proteinase-Assay bestimmt
Assay: NS3 proteinase assay (analogous to Taliani et al., Analytical Biochemistry 240 (1996) 60-67; evaluation with GraFit 4)
Assay type: biochemical
Description: Die IC50-Werte wurden analog zu dem in: M. Taliani et al., Analytical Biochemistry, 240 (1996) 60-67 beschriebenen NS3 Proteinase-Assay bestimmt. Die Auswertung erfolgte mit Hilfe des Programms "GraFit 4" der Firma Erithacus Software Ltd. (Staines, Middlesex, UK).

T1 sequence (P26663 1027-1657, other chains not shown): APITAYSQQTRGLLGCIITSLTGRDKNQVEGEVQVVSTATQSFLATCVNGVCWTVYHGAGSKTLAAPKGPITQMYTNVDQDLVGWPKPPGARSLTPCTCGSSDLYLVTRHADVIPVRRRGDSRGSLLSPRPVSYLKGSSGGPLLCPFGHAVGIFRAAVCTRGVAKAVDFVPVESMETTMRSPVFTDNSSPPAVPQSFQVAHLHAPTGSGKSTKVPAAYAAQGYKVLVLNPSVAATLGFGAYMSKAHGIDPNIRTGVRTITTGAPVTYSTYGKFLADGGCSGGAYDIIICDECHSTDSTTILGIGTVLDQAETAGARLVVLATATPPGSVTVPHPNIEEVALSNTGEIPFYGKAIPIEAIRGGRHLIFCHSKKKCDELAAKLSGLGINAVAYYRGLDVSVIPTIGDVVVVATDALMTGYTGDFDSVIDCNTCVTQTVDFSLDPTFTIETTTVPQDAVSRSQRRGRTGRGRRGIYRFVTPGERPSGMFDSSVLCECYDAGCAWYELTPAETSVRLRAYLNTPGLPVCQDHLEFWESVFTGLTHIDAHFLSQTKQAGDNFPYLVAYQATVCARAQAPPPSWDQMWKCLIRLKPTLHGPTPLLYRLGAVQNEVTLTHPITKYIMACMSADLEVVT

SMILES	IC50 (read-out: IC50) [µM]	IC50 [µM]
CC1=CC(=O)c2ccccc2C1=O [Beispiel 1, Menadion]	45	–
O=C1C=CC(=O)c2ccccc21 [Beispiel 2, 1,4-Naphthochinon]	–	20
Nc1ccc(O)c2ccccc12 [Beispiel 3, 1-Amino-4-naphthol]	13	–

Second part, led by results:

IC50 (read-out: IC50) [µM]	SMILES	IC50 [µM]
25	Oc1ccc(NCc2ccccc2)c2ccccc12 [Beispiel 4, 1-Benzylamino-4-naphthol]	–
51	Nc1ccc(O)c2ncccc12 [Beispiel 5, 5-Amino-8-hydroxychinolin]	–
